Laboratory results reported in US20240404621A1, “THERAPEUTIC DEVELOPMENT PLATFORM COMPRISING VARIANT CAPTURE MAPS AND OTHER VISUALIZATIONS” (The Scripps Research Institute, priority 2021, published 2024).

Assays:
[1] = target: T1, F508del CFTR (Homo sapiens, UniProt P13569, DEL508-508); test: steady-state CICon at the cell surface of WT and F508del; assay type: cell-based; details: F508del relative to WT
T1 construct: expressed in transfected cells
Excerpt: (§1) FIG. 2 illustrates an example process of variant spatial profiling (VSP) to generate a phenotype landscape 300 of FIG. 1. VSP uses a sparse collection of variants with known position and phenotypical traits. Each of the variants is positioned on the x-axis by their normalized position in the linear polypeptide sequence, where the full-length chain is assigned a value of 1.0, referred to as the variant sequence position (VarSeqP). The value of a phenotypic feature of each variant's (in this example the trafficking index, TrIdx) to the y-axis. The trafficking index (TrIdx) is the normalized ratio of the fraction of variants exported from the ER relative to the total variant level in the cell, where the value of the WT CFTR TrIdx is assigned a value of 1.0. In this example, the sequence position and TrIdx values are correlated to CFTR chloride conductance (CICon). The normalized CICon is assigned to the z-coordinate, where the value of the WT CFTR CICon is assigned a value of 1.0.
To assess how TrIdx is coupled to CICon at the cell surface in response to ELEXA or TRIKA, we assessed the steady-state CICon at the cell surface of WT and F508del. […] To understand the impact of ELEXA and TRIKA on the SCV relationships spanning the entire CFTR polypeptide, we measured the CICon responses for 64 CF variants. […]

[2] = target: T1, F508del CFTR; test: total level and trafficking (TrIdx) of F508del in F508del-CFBE41o− cells; assay type: cell-based
Excerpt: as §1
Referring now to FIG. 13, to address whether the correction of CICon in response to temperature is due to energetic features associated with global SCV relationships responsible for membrane trafficking of CFTR from the ER, we built the VarC map for the CFTR trafficking index (TrIdx) of variants following shift from 37° C. to 27° C. TrIdx quantifies the amount of CFTR in post-ER compartments relative to total CFTR in the cell as a measure of efficiency of ER export. The pairwise-residue based TS/TrIdx-VarC map (FIG. 13, upper left panel) and its corresponding TS/TrIdx-functional-response-structure (FIG. 13, upper second from left panel) reveal that only a limited subset of sequence residues contributes to TrIdx correction upon temperature shift. These include: 1) a sequence region containing F508 (FIG. 13, upper left panel, inset zoom); 2) a region in NBD1 domain including variants L558S, A559T, R560K/T and Y569D that are surrounding the CFTR di-acidic code (YKDAD (residues 563-567)) required for COPII dependent ER export (FIG. 13 upper left panel, inset zoom); 3) a sequence region in ICL4 that is reported by CF variants L1065P and L1077P (13) (FIG. 13, upper left panel, inset zoom). Even though separated in primary sequence, these responding regions cluster together in structure (FIG. 13, upper second from left panel). Overlap of MDC maps and corresponding MDC structures between TS/CICon and TS/TrIdx identifies a common energetic sensitive core (FIG. 13, right side, red) responding to temperature shift for both TrIdx and CICon function. This SCV based energetic sensitive core contains the F508-L1065 covariant link that bridges NBD1 (F508) and ICL4 (L1065) (FIG. 13, right panel, inset zoom, red), mechanistically explaining the previous observation that the NBD1-ICL4 interaction is crippled by F508del.
Consistent with previous results, using F508del-CFBE41o− cells, a bronchial epithelial cell line stably expressing the F508Del CFTR transgene, we found ELEXA alone can increase both the total level and the trafficking efficacy of F508del.
To test whether we can add value to the pairwise-residue networks targeted by TRIKA to improve TRIKA benefit for CF by restoring the lost energetics of the fold in response to F508del affecting the function of di-acidic exit code, we measured the impact of ELEXA and TRIKA impact on F508del at 27° C.

[3] = F508del at 27° C. compared to 37° C.
[4] = F508del-CFBE41o− cells, compound alone

T1 sequence (P13569 with tags, fused parts or gaps DEL508-508): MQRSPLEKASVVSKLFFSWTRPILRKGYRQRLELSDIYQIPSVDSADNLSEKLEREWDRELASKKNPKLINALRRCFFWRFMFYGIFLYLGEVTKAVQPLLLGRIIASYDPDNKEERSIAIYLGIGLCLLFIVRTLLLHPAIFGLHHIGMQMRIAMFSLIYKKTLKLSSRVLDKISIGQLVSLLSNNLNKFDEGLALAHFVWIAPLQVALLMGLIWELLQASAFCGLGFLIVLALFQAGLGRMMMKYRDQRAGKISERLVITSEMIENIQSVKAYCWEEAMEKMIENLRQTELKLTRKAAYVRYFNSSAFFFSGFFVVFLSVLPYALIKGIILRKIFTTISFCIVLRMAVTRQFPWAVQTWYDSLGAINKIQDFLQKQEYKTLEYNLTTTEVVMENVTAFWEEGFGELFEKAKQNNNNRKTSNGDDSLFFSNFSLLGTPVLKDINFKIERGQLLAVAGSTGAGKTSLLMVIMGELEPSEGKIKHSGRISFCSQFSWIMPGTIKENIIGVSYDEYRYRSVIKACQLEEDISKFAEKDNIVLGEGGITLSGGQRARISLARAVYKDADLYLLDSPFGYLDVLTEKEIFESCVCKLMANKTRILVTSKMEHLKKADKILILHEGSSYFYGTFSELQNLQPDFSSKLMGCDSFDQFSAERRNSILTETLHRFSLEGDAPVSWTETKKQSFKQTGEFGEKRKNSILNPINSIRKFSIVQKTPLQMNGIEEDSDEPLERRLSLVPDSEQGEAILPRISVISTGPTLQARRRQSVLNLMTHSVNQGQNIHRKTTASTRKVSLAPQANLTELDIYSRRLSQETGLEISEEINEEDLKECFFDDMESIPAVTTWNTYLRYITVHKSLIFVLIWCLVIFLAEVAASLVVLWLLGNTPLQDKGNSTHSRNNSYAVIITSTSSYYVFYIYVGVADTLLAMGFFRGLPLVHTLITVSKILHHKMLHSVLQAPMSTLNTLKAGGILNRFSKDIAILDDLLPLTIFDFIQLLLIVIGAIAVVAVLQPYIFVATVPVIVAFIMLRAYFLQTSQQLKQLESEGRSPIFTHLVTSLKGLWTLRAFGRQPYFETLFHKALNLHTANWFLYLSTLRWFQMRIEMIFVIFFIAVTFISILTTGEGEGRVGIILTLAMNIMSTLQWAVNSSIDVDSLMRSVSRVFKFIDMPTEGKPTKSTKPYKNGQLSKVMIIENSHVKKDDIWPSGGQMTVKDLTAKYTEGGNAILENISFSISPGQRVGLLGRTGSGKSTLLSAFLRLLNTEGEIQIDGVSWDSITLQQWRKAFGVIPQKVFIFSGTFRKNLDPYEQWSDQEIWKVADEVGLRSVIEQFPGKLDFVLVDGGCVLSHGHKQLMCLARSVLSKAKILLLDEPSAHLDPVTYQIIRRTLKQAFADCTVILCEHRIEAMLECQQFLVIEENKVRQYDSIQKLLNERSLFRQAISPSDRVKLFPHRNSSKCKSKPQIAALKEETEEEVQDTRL

| CICon function for F508del [1] | level of post-ER band C [2, 3] | total CFTR [2, 3] | trafficking efficiency (band C relative to total) [2, 3] | total level of F508del [2, 4] | trafficking efficacy of F508del [2, 4] | impact on TrIdx ([2]; F508del-CFBE41o− cells, IVA added to ELEXA) | Structure (SMILES) |
| --- | --- | --- | --- | --- | --- | --- | --- |
| ~20 % of WT | dramatic improvement | dramatic improvement | dramatic improvement | can increase | can increase |  | Cc1nn(C)cc1S(=O)(=O)NC(=O)c1ccc(-n2ccc(OCC(C)(C)C(F)(F)F)n2)nc1N1C[C@@H](C)CC1(C)C [ELEXA, Elexacaftor] |
|  |  |  |  |  |  | no additional impact | CC(C)(C)c1cc(C(C)(C)C)c(NC(=O)c2c[nH]c3ccccc3c2=O)cc1O [IVA, Ivacaftor] |
